Measurements as given in patent publication US20250144067A1, “PERSONALIZED STARVATION THERAPY FOR CANCER” (Faeth Therapeutics, Inc., priority 2021, published 2025).
Counter-ions that a name gives are not always drawn. Like-named read-outs stand apart in the source and are kept apart here. Square brackets hold non-standard residues; d marks the D form. Peptide text beside a SMILES is read from it. * marks the point of attachment. dPhe(4-NHCONH2) = NC(=O)Nc1ccc(C[C@@H](N)C(=O)O)cc1; Dihydroorotyl(S) = O=C1C[C@@H](C(=O)*)NC(=O)N1; dPhe(4-Cl) = N[C@H](Cc1ccc(Cl)cc1)C(=O)O; Phe(4-NH2) = Nc1ccc(C[C@H](N)C(=O)O)cc1; d2Nal = N[C@H](Cc1ccc2ccccc2c1)C(=O)O; Lys(iPr) = CC(C)NCCCC[C@H](N)C(=O)O; d3Pal = N[C@H](Cc1cccnc1)C(=O)O

What was measured:
[1] = test system: NCI-H292 lung cancer cells; assay: FDA drug screening, complete media vs cholesterol-free media with simvastatin (TABLE 2); type: cell-based, human
[2] = test system: NCI-H292 lung cancer cells; assay: FDA drug screening, complete media vs cholesterol-free media without statin (TABLE 1); type: cell-based, human
[3] = NCI-H292 cells, FDA library drug in cholesterol-free media with simvastatin 0.04 μM
[4] = NCI-H292 cells, FDA library drug in complete media
[5] = complete media vs cholesterol-free media + simvastatin (0.04 μM), >0 enhanced anti-cancer activity, about 0 neutral, <0 antagonist
[6] = Complete minus Cholesterol-free, greater than 0 enhanced anti-cancer activity, about 0 neutral, below 0 antagonist
[7] = NCI-H292 cells, FDA drug library screen, cholesterol-free media without statin
[8] = NCI-H292 cells, FDA drug library screen, complete media
[9] = NCI-H292 cells, cholesterol-free media with simvastatin 0.04 μM, FDA drug library screen (TABLE 2)
[10] = NCI-H292 cells, complete media, FDA drug library screen (TABLE 2)
[11] = complete media minus cholesterol-free media + simvastatin (0.04 μM), >0 enhanced anti-cancer activity, about 0 neutral, <0 antagonist
[12] = Complete minus Cholesterol-free, greater than 0 enhanced anti-cancer activity, about 0 neutral, below 0 antagonists
[13] = NCI-H292 cells in cholesterol-free media without statin
[14] = NCI-H292 cells in complete media
[15] = NCI-H292 cells, cholesterol-free media without statin
[16] = complete vs cholesterol-free media, greater than 0 enhanced anti-cancer activity, about 0 neutral, below 0 antagonists
[17] = Complete minus Cholesterol-free, >0 enhanced anti-cancer activity, about 0 neutral, <0 antagonist
[18] = NCI-H292 cells, cholesterol-free media without statin, FDA drug library screen
[19] = NCI-H292 cells, complete media, FDA drug library screen
[20] = NCI-H292 cells, FDA drug library screen, cholesterol-free media with simvastatin 0.04 μM
[21] = complete media minus cholesterol-free media + simvastatin, >0 enhanced anti-cancer activity, about 0 neutral, <0 antagonist
[22] = NCI-H292 cells, drug in cholesterol-free media with simvastatin 0.04 μM
[23] = NCI-H292 cells, drug in complete media
[24] = complete vs cholesterol-free media, >0 enhanced anti-cancer activity, about 0 neutral, <0 antagonist

Structure (SMILES): O=C([O-])c1ccccc1O.[Na+] [Sodium Salicylate]
- Cholesterol-free media + simvastatin (0.04 μM) [1]: 1.29
- Complete Media [1]: 1.045
- Difference [1]: −0.24
- Cholesterol-free [2]: 1.153
- Complete [2]: 0.943
- Difference [2]: −0.21

Structure (SMILES): COc1ccccc1OCCNCC(O)COc1cccc2[nH]c3ccccc3c12 (stereo not drawn) [Carvedilol]
- Cholesterol-free media + simvastatin (0.04 μM) [1, 3]: 1.448
- Complete Media [1, 4]: 0.9665
- Difference [1, 5]: −0.48
- Difference [2, 6]: −0.18
- Cholesterol-free [2, 7]: 1.133
- Complete [2, 8]: 0.9579

Structure (SMILES): CCCN[C@H]1CCc2nc(N)sc2C1 [Pramipexole]
- Cholesterol-free media + simvastatin (0.04 μM) [1, 9]: 1.074
- Complete Media [1, 10]: 1.035
- Difference [1, 11]: −0.04
- Difference [2, 12]: −0.68
- Cholesterol-free [2, 13]: 1.519
- Complete [2, 14]: 0.8353

Structure (SMILES): Cc1ccc(=O)n(-c2ccccc2)c1 [Pirfenidone]
- Cholesterol-free media + simvastatin (0.04 μM) [1, 3]: 1.397
- Complete Media [1, 4]: 1.068
- Difference [1, 5]: −0.33
- Cholesterol-free [2, 15]: 1.328
- Complete ([2]; NCI-H292 cells, complete media): 0.9771
- Difference [2, 16]: −0.35

Structure (SMILES): CCOC(=O)C1=C(C)NC(C)=C(C(=O)OCC)C1c1ccccc1/C=C/C(=O)OC(C)(C)C [Lacidipine]
- Cholesterol-free media + simvastatin (0.04 μM) [1, 3]: 1.8
- Complete Media [1, 4]: 0.96
- Difference [1, 5]: −0.84
- Difference [2, 17]: −0.07
- Cholesterol-free [2, 18]: 1.081
- Complete [2, 19]: 1.013

Structure (SMILES): O=c1[nH]c(=O)n([C@H]2C[C@H](O)[C@@H](CO)O2)cc1F [Floxuridine]
- Cholesterol-free media + simvastatin (0.04 μM) [1, 9]: 0.09098
- Complete Media [1, 10]: 0.02907
- Difference [1, 11]: −0.06
- Difference [2, 17]: −0.01
- Cholesterol-free [2, 18]: 0.09159
- Complete [2, 19]: 0.08047

Structure (SMILES): COc1ccccc1N1CCN(CCCNc2cc(=O)n(C)c(=O)n2C)CC1 [Urapidil]
- Cholesterol-free media + simvastatin (0.04 μM) [1, 20]: 1.097
- Complete Media [1, 8]: 1.271
- Difference [1, 21]: 0.17
- Difference [2, 12]: −0.56
- Cholesterol-free [2, 13]: 1.658
- Complete [2, 14]: 1.095

Structure (SMILES): CNC[C@H](O)[C@@H](O)[C@H](O)[C@H](O)CO.Nc1nc(-n2cc(C(=O)O)c(=O)c3cc(F)c(N4CC(O)C4)c(Cl)c32)c(F)cc1F [Delafloxacin (meglumine)]
- Cholesterol-free media + simvastatin (0.04 μM) [1, 22]: 1.156
- Complete Media [1, 23]: 0.9953
- Difference [1, 5]: −0.16
- Cholesterol-free [2, 15]: 1.432
- Complete ([2]; NCI-H292 cells, complete media): 1.009
- Difference [2, 16]: −0.42

Structure (SMILES): O=C(O)CCCCC1CCSS1 (stereo not drawn) [α-Lipoic Acid]
- Cholesterol-free media + simvastatin (0.04 μM) [1, 20]: 1.116
- Complete Media [1, 8]: 1.004
- Difference [1, 5]: −0.11
- Difference [2, 6]: −0.15
- Cholesterol-free [2, 7]: 1.192
- Complete [2, 8]: 1.044

Structure (SMILES): C[C@H]1C[C@@H]2[C@H]([C@@H](O)C[C@@]3(C)[C@H]2CC[C@]3(O)C(=O)COC(=O)CCC(=O)O)[C@@]2(C)C=CC(=O)C=C12 [Methylprednisolone succinate]
- Cholesterol-free media + simvastatin (0.04 μM) [1, 22]: 0.9151
- Complete Media [1, 23]: 0.7051
- Difference [1, 5]: −0.21
- Cholesterol-free [2, 15]: 0.8243
- Complete ([2]; NCI-H292 cells, complete media): 0.4661
- Difference [2, 16]: −0.36

Structure (SMILES): COc1cc(Cc2cnc(N)nc2N)cc(OC)c1OC [Trimethoprim]
- Cholesterol-free media + simvastatin (0.04 μM) [1, 3]: 1.335
- Complete Media [1, 4]: 1.064
- Difference [1, 5]: −0.27
- Cholesterol-free [2, 18]: 0.567
- Complete [2, 19]: 1.096
- Difference [2, 24]: 0.53

Structure (SMILES): Nc1nc2nc[nH]c2c(=S)[nH]1 [6-Thioguanine]
- Cholesterol-free media + simvastatin (0.04 μM) [1, 9]: 0.7013
- Complete Media [1, 10]: 0.7052
- Difference [1, 11]: 0.00
- Cholesterol-free [2, 15]: 0.7053
- Complete ([2]; NCI-H292 cells, complete media): 0.3153
- Difference [2, 16]: −0.39

Structure (SMILES): Cc1cc2nc3c(=O)[nH]c(=O)nc-3n(C[C@H](O)[C@H](O)[C@H](O)COP(=O)(O)OP(=O)(O)OC[C@H]3O[C@@H](n4cnc5c(N)ncnc54)[C@H](O)[C@@H]3O)c2cc1C
- Cholesterol-free media + simvastatin (0.04 μM) [1, 22]: 1.111
- Complete Media [1, 23]: 0.8891
- Difference [1, 5]: −0.22
- Difference [2, 6]: −0.12
- Cholesterol-free [2, 7]: 0.9242
- Complete [2, 8]: 0.8033

Structure (SMILES): COC1=C(OC)C(=O)C(CCCCCCCCCCO)=C(C)C1=O [Idebenone]
- Cholesterol-free media + simvastatin (0.04 μM) ([1]; NCI-H292 cells, cholesterol-free media with simvastatin 0.04 μM, cell growth value in FDA drug screen): 1.049
- Complete Media ([1]; NCI-H292 cells, complete media, cell growth value in FDA drug screen): 1.125
- Difference [1, 21]: 0.08
- Difference [2, 17]: −0.21
- Cholesterol-free [2, 15]: 1.239
- Complete ([2]; NCI-H292 cells, complete media): 1.029

Structure (SMILES): C[C@]12CC[C@@H]3c4ccc(O)cc4CC[C@H]3[C@@H]1CC[C@@H]2O [Estradiol]
- Cholesterol-free media + simvastatin (0.04 μM) [1, 20]: 1.106
- Complete Media [1, 8]: 1.409
- Difference [1, 21]: 0.30
- Difference [2, 17]: 0.06
- Cholesterol-free [2, 18]: 0.707
- Complete [2, 19]: 0.7678

Structure (SMILES): Nc1nc2[nH]cc(CCc3ccc(C(=O)N[C@@H](CCC(=O)O)C(=O)O)cc3)c2c(=O)[nH]1 [Pemetrexed (disodium hemipenta hydrate)]
- Cholesterol-free media + simvastatin (0.04 μM) [1, 9]: 0.2685
- Complete Media [1, 10]: 0.2746
- Difference [1, 11]: 0.01
- Cholesterol-free [2, 18]: 0.09445
- Complete [2, 19]: 0.1693
- Difference [2, 24]: 0.07

Structure (SMILES): COC(=O)N[C@H](C(=O)N1CCC[C@H]1c1nc(-c2ccc(-c3ccc(-c4c[nH]c([C@@H]5CCCN5C(=O)[C@@H](NC(=O)OC)C(C)C)n4)cc3)cc2)c[nH]1)C(C)C [Daclatasvir (dihydrochloride)]
- Cholesterol-free media + simvastatin (0.04 μM) [1, 3]: 1.149
- Complete Media [1, 4]: 0.7215
- Difference [1, 5]: −0.43
- Difference [2, 17]: 0.02
- Cholesterol-free [2, 18]: 1.025
- Complete [2, 19]: 1.046

Structure (SMILES): C#C[C@]1(O)CC[C@H]2[C@@H]3CCC4=CC(=O)CCC4=C3C=C[C@@]21CC [Gestrinone]
- Cholesterol-free media + simvastatin (0.04 μM) [1, 20]: 1.007
- Complete Media [1, 8]: 1.693
- Difference ([1]; complete media minus cholesterol-free media + simvastatin, […]): 0.69
- Cholesterol-free [2, 18]: 0.8898
- Complete [2, 19]: 2.026
- Difference ([2]; complete vs cholesterol-free media, […]): 1.14

Structure (SMILES): COc1cnc(NS(=O)(=O)c2ccc(N)cc2)nc1 [Sulfameter]
- Cholesterol-free media + simvastatin (0.04 μM) [1, 9]: 0.9816
- Complete Media [1, 10]: 0.9471
- Difference [1, 11]: −0.03
- Difference [2, 6]: −0.13
- Cholesterol-free [2, 7]: 0.9159
- Complete [2, 8]: 0.7824

Structure (SMILES): CC(=O)N[C@H](Cc1ccc2ccccc2c1)C(=O)N[C@H](Cc1ccc(Cl)cc1)C(=O)N[C@H](Cc1cccnc1)C(=O)N[C@@H](CO)C(=O)N[C@@H](Cc1ccc(NC(=O)[C@@H]2CC(=O)NC(=O)N2)cc1)C(=O)N[C@H](Cc1ccc(NC(N)=O)cc1)C(=O)N[C@@H](CC(C)C)C(=O)N[C@@H](CCCCNC(C)C)C(=O)N1CCC[C@H]1C(=O)N[C@H](C)C(N)=O [Degarelix] (Ac-[d2Nal][dPhe(4-Cl)][d3Pal]S[Phe(4-NH2)](Dihydroorotyl(S))[dPhe(4-NHCONH2)]L[Lys(iPr)]P[dA]-NH2)
- Cholesterol-free media + simvastatin (0.04 μM) [1, 9]: 1.679
- Complete Media [1, 10]: 1.609
- Difference ([1]; complete media minus cholesterol-free media + simvastatin (0.04 μM), […]): −0.07
- Difference ([2]; Complete minus Cholesterol-free, […]): −0.81
- Cholesterol-free [2, 13]: 1.673
- Complete [2, 14]: 0.859

Structure (SMILES): CC(=O)Oc1cc2c(s1)CCN(C(C(=O)C1CC1)c1ccccc1F)C2 (stereo not drawn) [Prasugrel (hydrochloride)]
- Cholesterol-free media + simvastatin (0.04 μM) [1, 22]: 1.213
- Complete Media [1, 23]: 1.05
- Difference [1, 5]: −0.16
- Cholesterol-free [2, 18]: 0.9393
- Complete [2, 19]: 1.044
- Difference [2, 24]: 0.10
